Assays:
ACAT [1] = test: ACAT activity, intact HepG2 cells (method of Chautan et al.); type: cell-based, humaines
From the text: (§1) Les expérimentations utilisent la méthode de Chautan M. et coll., (Anal. Biochem. 1988) afin de déterminer l'activité ACAT. Les activités sont exprimées en concentrations inhibitrices à 50% (CI50), l'unité est le nM. Deux types de préparations enzymatiques ont été utilisés pour analyser l'activité putative des composés : microsomes hépatiques de rat et cellules humaines intactes HepG2. Les microsomes sont obtenus à partir de fractionnement subcellulaire utilisant une étape d'homogénéisation puis une étape d'ultracentrifugation. Le dosage de l'activité ACAT est réalisé par incubation des microsomes hépatiques ou des cellules avec le composé d'intérêt ainsi que le précurseur radiomarqué. La séparation du produit de la réaction à partir du milieu d'incubation acellulaire ou cellulaire est réalisée par élution sur colonne de silice; le cholesteryl-oléate formé est ensuite quantifié en radioanalyse.

ACAT [2] = test: ACAT inhibition in vivo: plasma cholesterol in rats on a hypercholesterolemic diet; conditions: oral route, 4 days of hypercholesterolemic diet with simultaneous treatment, plasma cholesterol on day 5 (colorimetric)
From the text: Les rats sont soumis à un régime alimentaire hypercholestérolémique pendant 4 jours. Les animaux sont traités simultanément par voie orale avec les différentes molécules. Le cinquième jour les animaux sont euthanasiés et la variation des taux de cholestérol plasmatique circulant analysée par méthode colorimétrique. Les activités sont exprimées en doses efficaces à 50% (DE50), l'unité est le mg/kg.

ACAT [3] = test: ACAT activity, rat liver microsomes (method of Chautan et al.); type: biochemical; conditions: radiolabelled precursor, cholesteryl-oléate formed quantified, read-out: microsomes CI50
From the text: as §1

procollagène de type 1 = conditions: protein level and mRNA; cited from earlier work
glandes sébacées = conditions: primate, chronic treatment; cited from earlier work
[4] = intact human HepG2 cells; radiolabelled precursor, cholesteryl-oléate formed quantified; read-out: HepG2 CI50
[5] = read-out: HepG2 CI50; intact human HepG2 cells; radiolabelled precursor, cholesteryl-oléate formed quantified

Structure (SMILES)	IC50 (ACAT [1]; [4]) [nM]	Etude in vivo chez le rat DE50 (ACAT [2]) [mg/kg]	IC50 (ACAT [3]) [nM]	IC50 (ACAT [1]; [5]) [nM]	procollagène de type 1 (procollagène de type 1)	effet secondaire sur les glandes sébacées (glandes sébacées)
CCCCCCCCCCCCSC(C)(C)C(=O)N1CSC[C@H]1C(=O)Nc1cc(C)c(O)c(C)c1C [Exemple 5, (R)-3-(2-(dodécylthio)-2-méthylpropanoyl)-N-(4-hydroxy-2,3,5-triméthyl-phényl)thiazolidine-4-carboxamide]	39	<0.63	34			
CCCCCCCCCCCCSC(C(=O)Nc1c(C)c(C)c(N)c(C)c1C)c1cccs1 (stereo not shown) [Exemple 8, chlorhydrate du N-(4-amino-2,3,5,6-tétraméthylphényl)-2-(dodécylthio)-2-(thiophén-2-yl)acétamide]		0.26	69	38		
CCCCCCCCCCCCSC(C)(C)C(=O)N1CCC[C@H]1C(=O)Nc1cc(C)c(O)c(C)c1C [Exemple 3, (S)-1-(2-(dodécylthio)-2-méthylpropanoyl)-N-(4-hydroxy-2,3,5-triméthyl-phényl)pyrrolidine-2-carboxamide]	34	<0.63	18			
CSc1cc(C)nc(SC)c1NC(=O)CN1CCN(CCSc2nc3ccccc3[nH]2)CC1 [K-604]					augmentation de procollagène de type 1	
CCCCCCCCCCCCSC(C(=O)Nc1c(C)c(C)c(N)c(C)c1C)c1ccsc1 (stereo not shown) [Exemple 7, chlorhydrate du N-(4-amino-2,3,5,6-tétraméthylphényl)-2-(dodécylthio)-2-(thiophén-3-yl)acétamide]		0.16	41	93		
CCCCCCCCCCCCSC(C)(C)C(=O)N1CCCCC1C(=O)Nc1cc(C)c(O)c(C)c1C (stereo not shown) [Exemple 1, 1-(2-(dodécylthio)-2-méthylpropanoyl)-N-(4-hydroxy-2,3,5-triméthyl-phényl)pipéridine-2-carboxamide]	47	0.63	47			
CC(C)c1cccc(C(C)C)c1NC(=O)NCC1(c2ccc(N(C)C)cc2)CCCC1.Cl [PD 132301-2]						atrophie des glandes sébacées
CCCCCCCCN1CCc2c(C)c(CC(=O)O)c(C)c(NC(=O)C(C)(C)C)c21 [pactimibe]					n'ont pas cette propriété	
CCCCCCCCCCCCSC(C(=O)Nc1cc(C)c(O)c(C)c1C)c1ccsc1 (stereo not shown) [Exemple 6, 2-(dodécylthio)-N-(4-hydroxy-2,3,5-triméthylphényl)-2-(thiophén-3-yl)acétamide]	27	0.17	71			
CCCCCCCCCCCCSC(C)(C)C(=O)N1CCCC1C(=O)Nc1cc(C)c(O)c(C)c1C (stereo not shown) [Exemple 2, 1-(2-(dodécylthio)-2-méthylpropanoyl)-N-(4-hydroxy-2,3,5-triméthyl-phényl)-pyrrolidine-2-carboxamide]	48	<0.63	81			
CCCCCCCCCCSC(C)(C)C(=O)N1CCC[C@H]1C(=O)Nc1cc(C)c(O)c(C)c1C [Exemple 4, (S)-1-(2-(décylthio)-2-méthylpropanoyl)-N-(4-hydroxy-2,3,5-triméthyl-phényl)-pyrrolidine-2-carboxamide]		0.63				
